Assay results as given in patent US11654178B2, “Cyclic prosaposin peptides and uses thereof” (CHILDREN'S MEDICAL CENTER CORPORATION, priority 2014, dated 2023).
Where a SMILES comes first, the peptide text is derived from it.

Columns and labels:
[1] = test system: DF14 cells; assay: DF14 PDX model of metastatic ovarian cancer, cyclic peptide for 10 days; format: in vivo, mice
Experimental: Based on these findings the efficacy of the cyclic peptide using the DF14 model was tested. In order to better study the effects of the peptide on the metastatic lesions mice were injected with 1×10^7 cells and allowed the luciferase signal to reach 9×10^9 RLU. The mice were treated with the cyclic peptide for only 10 days to ensure that there would be sufficient tumor tissue to analyze. […] The liver, spleen and omentum were analyzed of both the peptide and control treated mice by H&E, and IHC for Tsp-1, Gil and TUNEL. The metastatic lesions in the control treated mice were, on average, 2.3-fold larger than those in the peptide treated mice (FIG. 14E). […] Moreover, all of the lesions in the peptide treated mice contained a significant percentage of TUNEL positive cells, with an average of 40% TUNEL positive cells/lesion (FIGS. 14H and 14I). Conversely, control treated tumors contained, on average, only 1.4% TUNEL positive cells/lesion (FIGS. 14H and 14I).

[2] = test system: thrombospondin-1 (Tsp-1) in WI-38 lung fibroblasts; assay: Stimulation of Tsp-1 in WI-38 lung fibroblasts (western blot); format: cell-based
Excerpt: Identification of both a 4- and 5-amino acid peptide derived from the saposin A domain of Psap that was able to inhibit both a tail vein model of Lewis Lung Carcinoma metastasis and in an adjuvant model of breast cancer metastasis when administered systemically was previously described (3). The therapeutic efficacy of peptides is often limited by their stability, or resistance to degradation by proteases. […] The stability of the 4-amino acid Psap peptide by incorporating d-amino acids at different moieties was investigated. Two peptides with d-amino acids incorporated, in combination, at the first (aspartate) and third (leucine) or the second (tryptophan) and fourth (proline) residues were synthesized. The activity of these peptides along with the native 1-amino acid peptide in vitro by measuring their ability to stimulate thrombospondin-1 (Tsp-1) in WI-38 lung fibroblasts was tested.
While the results of the peptide treatment of the PDX model of ovarian cancer were very promising it was postulated that the stability and activity of the peptide could be increased even more. The peptide derived from Psap was located in a region of the protein that contained a 13-amino acid loop between two helices that was stabilized by a disulfide bond (3). As such a 5-amino acid peptide that was cyclized via backbone (N—C) cyclization was synthesized (FIG. 14A, cyclic DWLPK (SEQ ID NO: 1)). […]

[3] = test system: thrombospondin-1 (Tsp-1); assay: Tsp-1 activation in cultured cells by Western blot; format: cell-based; conditions: cyclic peptides, 4 micrograms/mL or 10 micrograms/mL, Western blot, FIG. 2
Experimental: Cells were cultured and contacted with 4 micrograms/mL or 10 micrograms/mL of each peptide and the level of thrombospondin-1 (Tsp-1) activation was measured by Western blot. Tsp-1 has been previously shown to be activated by Saposin A protein.

[4] = test system: patient-derived ovarian cancer cells expressing luciferase; assay: Mouse model of ovarian cancer, luciferase tumor burden and histology; format: in vivo, mice; conditions: 10 mg/kg for 10 days
Experimental: Next the cyclic peptide DWLPK (SEQ ID NO: 1) was tested in a mouse model of ovarian cancer. For the ovarian cancer mouse model, 1 million patient-derived ovarian cancer cells expressing luciferase were injected intraperitoneally into mice. The tumor burden was measured in vivo using luciferase. Treatment with the cyclic peptide began after 40 days and was administered for 10 days at 10 mg/kg. After 10 days of treatment, the mice were euthanized and the tumor was analyzed histologically.

[5] = test system: pancreatic cancer; assay: Anti-tumor activity against pancreatic cancer (FIGS. 19 and 20); format: in vivo
[6] = Stability in human plasma at 37° C., read out as Tsp-1 stimulation in WI-38 fibroblasts (ELISA); format: in vitro ADME; conditions: 24 hours
Experimental: The cyclic peptide DWLPK (SEQ ID NO: 1) was also tested for stability in human plasma compared to the linear peptide dWIP (SEQ ID NO: 5). Each peptide was incubated in human plasma at 37 degrees Celsius, for 2, 4, 8, or 24 hours.
Cyclization also has the effect of increasing the stability of peptides by forcing them into a conformation that is not recognized by most naturally occurring proteases (9, 10, 14-18). The stability of the cyclic peptide to the linear d-amino acid peptide in human plasma was compared.

[7] = mouse, in vivo
[8] = test system: Tsp-1; assay: Tsp-1 stimulation in macrophages in mice; format: in vivo; conditions: FIG. 7, F4/80 macrophages
[9] = Activity of cyclic versus linear peptide (FIG. 18)
[10] = test system: DSS-induced model of Crohn's Disease; assay: Dextran Sodium Sulfate (DSS)-induced model of Crohn's Disease; format: in vivo, mice
Experimental: A model of Crohn's disease was used to test the efficacy of the cyclic peptide DWLPK (SEQ ID NO: 1) for treating Crohn's disease. The cyclic peptide was tested in a Dextran Sodium Sulfate (DSS)-induced model of Crohn's Disease where DSS was given to the mice in their drinking water (3.5% weight:volume) for 7 days. In one group the mice were treated concurrently with the cyclic peptide and DSS, while the other group was treated with DSS alone.

## CC(C)C[C@@H]1NC(=O)[C@H](Cc2c[nH]c3ccccc23)NC(=O)[C@H](CC(=O)O)NC(=O)[C@H](CCCCN)NC(=O)[C@@H]2CCCN2C1=O [cyclic DWLPK] (cyclo(DWLPK))
[1]; 10 days of treatment, on average
  size of metastatic lesions in control treated mice relative to peptide treated mice: 2.3 fold
[1]; 10 days of treatment, control 1.4%
  TUNEL positive cells/lesion, average: 40%
[1]; after 10 days of treatment, start at 9×10^9 RLU, 10 mg/kg QD
  average luciferase signal after treatment: 4×10^8 RLU
[1]; all of the peptide treated tumors
  Tsp-1 staining of treated tumors (IHC): stained positive for Tsp-1
[2]
  Tsp-1 stimulation in vitro relative to d-amino acid linear peptide: 3 fold
[3]
  effectiveness at increasing the level of Tsp-1: most effective
[4]
  size of treated tumors relative to untreated tumors by histology: < 25%
[4]; histology
  Tsp-1 expression in treated tumors: expressed Tsp-1
[4]; starting after 40 days, FIG. 6
  luciferase output (tumor burden): went down
[5]; FIG. 19
  anti-tumor activity against pancreatic cancer: significant anti-tumor activity
[5]; FIG. 20
  effect on metastasis of pancreatic cancer: inhibits metastasis
  effect on metastatic pancreatic cancer: regresses metastatic pancreatic cancer
[6]; 37 degrees Celsius, FIG. 3
  ability to activate Tsp-1 after incubation in human plasma: retained the ability to activate Tsp-1
[6]; 37° C., ELISA
  Tsp-1 stimulating activity retained after incubation in human plasma: greater than 70%
[7]
  toxicity to the liver or spleen by histology: did not cause any toxicity
[8]
  Tsp-1 in macrophages in mice: stimulated Tsp-1 in macrophages
[9]
  activity relative to the linear peptide: approximately 2 fold
[10]; DSS 3.5% in drinking water 7 days, peptide concurrently, FIG. 9
  inflammation (MPO enzymatic activity): significantly reduced inflammation
[10]; FIG. 10
  body weight loss versus DSS only: lost less weight
[10]; FIG. 11
  Tsp-1 stimulation in intestine: stimulate Tsp-1
  macrophage infiltration: inhibit macrophage infiltration
